According to patent US20070004660A1, “Synergistic Modulation of Flt3 Kinase Using Alkylquinolines and Alkylquinazolines” (priority 2005, published 2007):
pIC50: −log10 of the molar value.

Tests used:
MV4-11 cells = assay: Inhibition of MV4-11 cell proliferation (CellTiterGlo, 72 h); type: cell-based; conditions: Homo sapiens; 72 h growth inhibition; uncertainty ±20%
[1] = molecular target: T1, isolated kinase domain of the human FLT3 receptor (a.a. 571-993) (Homo sapiens, UniProt P36888); assay: FLT3 fluorescence polarization kinase assay; type: biochemical; conditions: 150 uM ATP; uncertainty ±10%
T1 construct: human FLT3 receptor (a.a. 571-993)
T1 sequence (P36888 571-993): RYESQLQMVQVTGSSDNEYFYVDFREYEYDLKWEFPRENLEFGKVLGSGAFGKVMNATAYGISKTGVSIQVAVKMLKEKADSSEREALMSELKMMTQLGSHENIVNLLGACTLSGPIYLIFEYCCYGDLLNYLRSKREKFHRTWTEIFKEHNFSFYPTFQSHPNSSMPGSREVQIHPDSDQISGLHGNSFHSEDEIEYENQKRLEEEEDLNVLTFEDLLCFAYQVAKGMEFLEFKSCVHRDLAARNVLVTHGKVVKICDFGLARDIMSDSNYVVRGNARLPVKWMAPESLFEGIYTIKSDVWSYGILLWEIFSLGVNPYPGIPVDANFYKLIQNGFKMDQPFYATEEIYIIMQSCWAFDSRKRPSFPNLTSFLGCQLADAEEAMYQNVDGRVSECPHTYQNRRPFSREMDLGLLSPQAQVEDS

Structure (SMILES): CC(C)Oc1ccc(NC(=O)N2CCC(c3ncnc4ccc(C#CCO)cc34)CC2)cc1 [Example 12, 4-[6-(3-Hydroxy-prop-1-ynyl)-quinazolin-4-yl]-piperidine-1-carboxylic acid (4-isopropoxy-phenyl)-amide]
- pIC50 (MV4-11 cells): 6.83
- pIC50 [1]: 7.49

Structure (SMILES): COc1cc2ncnc(C3CCN(C(=O)Nc4ccc(C(C)O)cc4)CC3)c2cc1OC (stereo not shown) [Example 55, 4-(6,7-Dimethoxy-quinazolin-4-yl)-piperidine-1-carboxylic acid [4-(1-hydroxy-ethyl)-phenyl]-amide]
- pIC50 (MV4-11 cells): 5.59
- pIC50 [1]: 5.96

Structure (SMILES): COc1cc2ncnc(C3CCN(C(=O)Nc4ccc(OC(F)F)cc4)CC3)c2cc1OC [Example 51, 4-(6,7-Dimethoxy-quinazolin-4-yl)-piperidine-1-carboxylic acid (4-difluoromethoxy-phenyl)-amide]
- pIC50 (MV4-11 cells): 6.51
- pIC50 [1]: 6.80

Structure (SMILES): CC(C)Oc1ccc(NC(=O)N2CCC(c3ncnc4cc(OCCCOS(C)(=O)=O)ccc34)CC2)cc1 [Example 121, Methanesulfonic acid 3-{4-[1-(4-isopropoxy-phenylcarbamoyl)-piperidin-4-yl]-quinazolin-7-yloxy}-propyl ester]
- pIC50 (MV4-11 cells): 7.57
- pIC50 [1]: 8.52

Structure (SMILES): CCC(C)c1ccc(NC(=O)N2CCC(c3ncnc4cc(OC)c(OC)cc34)CC2)cc1 (stereo not shown) [Example 52, 4-(6,7-Dimethoxy-quinazolin-4-yl)-piperidine-1-carboxylic acid (4-sec-butyl-phenyl)-amide]
- pIC50 (MV4-11 cells): 8.15
- pIC50 [1]: 7.72

Structure (SMILES): CC(C)Oc1ccc(NC(=O)N2CCC(c3ncnc4cc(OCCN5CCOC5=O)ccc34)CC2)cc1 [Example 79, 4-{7-[2-(2-Oxo-oxazolidin-3-yl)-ethoxy]-quinazolin-4-yl}-piperidine-1-carboxylic acid (4-isopropoxy-phenyl)-amide]
- pIC50 (MV4-11 cells): 7.36
- pIC50 [1]: 7.24

Structure (SMILES): COc1cc2ncnc(C3CCN(C(=O)Nc4ccc(N5CCCC5=O)cc4)CC3)c2cc1OC [Example 57, 4-(6,7-Dimethoxy-quinazolin-4-yl)-piperidine-1-carboxylic acid [4-(2-oxo-pyrrolidin-1-yl)-phenyl]-amide]
- pIC50 (MV4-11 cells): 5.92
- pIC50 [1]: 6.15

Structure (SMILES): CC(C)Oc1ccc(NC(=O)N2CCC(c3ncnc4ccc(I)cc34)CC2)cc1 [Example 11, 4-(6-Iodo-quinazolin-4-yl)-piperidine-1-carboxylic acid (4-isopropoxy-phenyl)-amide]
- pIC50 (MV4-11 cells): 6.34
- pIC50 [1]: 7.34

Structure (SMILES): CN1CCN(CCCOc2ccc3c(C4CCN(C(=O)Nc5ccc(N6CCOCC6)c(F)c5)CC4)ncnc3c2)CC1 [Example 81, 4-{7-[3-(4-Methyl-piperazin-1-yl)-propoxy]-quinazolin-4-yl}-piperidine-1-carboxylic acid (3-fluoro-4-morpholin-4-yl-phenyl)-amide]
- pIC50 (MV4-11 cells): 7.15
- pIC50 [1]: 8.15

Structure (SMILES): COc1cc2ncnc(C3CCN(C(=O)Nc4ccc(-c5cncnc5)cc4)CC3)c2cc1OC [Example 58, 4-(6,7-Dimethoxy-quinazolin-4-yl)-piperidine-1-carboxylic acid (4-pyrimidin-5-yl-phenyl)-amide]
- pIC50 (MV4-11 cells): 5.70
- pIC50 [1]: 5.70

Structure (SMILES): CC(C)Oc1ccc(NC(=O)N2CCC(c3ncnc4ccc(OCCCN5CCCC5=O)cc34)CC2)cc1 [Example 101, 4-{6-[3-(2-Oxo-pyrrolidin-1-yl)-propoxy]-quinazolin-4-yl}-piperidine-1-carboxylic acid (4-isopropoxy-phenyl)-amide]
- pIC50 (MV4-11 cells): 7.47
- pIC50 [1]: 9.10

Structure (SMILES): O=C(Nc1ccc(N2CCCC2)nc1)N1CCC(c2ncnc3cc(OCCN4CCOCC4)ccc23)CC1 [Example 95, 4-[7-(2-Morpholin-4-yl-ethoxy)-quinazolin-4-yl]-piperidine-1-carboxylic acid (6-pyrrolidin-1-yl-pyridin-3-yl)-amide]
- pIC50 (MV4-11 cells): 7.25
- pIC50 [1]: 8.10

Structure (SMILES): CN1CCN(CCCOc2ccc3c(C4CCN(C(=O)Nc5ccc(N6CCCC6)nc5)CC4)ncnc3c2)CC1 [Example 104, 4-{7-[3-(4-Methyl-piperazin-1-yl)-propoxy]-quinazolin-4-yl}-piperidine-1-carboxylic acid (6-pyrrolidin-1-yl-pyridin-3-yl)-amide]
- pIC50 (MV4-11 cells): 7.92
- pIC50 [1]: 7.96

Structure (SMILES): CS(=O)(=O)N1CCN(CCCOc2ccc3c(C4CCN(C(=O)Nc5ccc(N6CCOCC6)cc5)CC4)ncnc3c2)CC1 [Example 118, 4-{7-[3-(4-Methanesulfonyl-piperazin-1-yl)-propoxy]-quinazolin-4-yl}-piperidine-1-carboxylic acid (4-morpholin-4-yl-phenyl)-amide]
- pIC50 (MV4-11 cells): 7.05
- pIC50 [1]: 8.10

Structure (SMILES): CN(C)C(=O)N1CCN(CCCOc2ccc3c(C4CCN(C(=O)Nc5ccc(N6CCOCC6)cc5)CC4)ncnc3c2)CC1 [Example 120, 4-(3-{4-[1-(4-Morpholin-4-yl-phenylcarbamoyl)-piperidin-4-yl]-quinazolin-7-yloxy}-propyl)-piperazine-1-carboxylic acid dimethylamide]
- pIC50 (MV4-11 cells): 6.66
- pIC50 [1]: 7.44

Structure (SMILES): CC(C)Oc1ccc(NC(=O)N2CCC(c3ncnc4cc(NCCCN5CCN(C)CC5)ccc34)CC2)cc1 [Example 102, 4-{7-[3-(4-Methyl-piperazin-1-yl)-propylamino]-quinazolin-4-yl}-piperidine-1-carboxylic acid (4-isopropoxy-phenyl)-amide]
- pIC50 (MV4-11 cells): 7.74
- pIC50 [1]: 8.30

Structure (SMILES): CCCCc1ccc(NC(=O)N2CCC(c3ncnc4cc(OC)c(OC)cc34)CC2)cc1 [Example 43, 4-(6,7-Dimethoxy-quinazolin-4-yl)-piperidine-1-carboxylic acid (4-butyl-phenyl)-amide]
- pIC50 (MV4-11 cells): 6.71
- pIC50 [1]: 7.62

Structure (SMILES): O=C1CCCN1CCOc1ccc2c(C3CCN(C(=O)Nc4ccc(N5CCOCC5)cc4)CC3)ncnc2c1 [Example 85, 4-{7-[2-(2-Oxo-pyrrolidin-1-yl)-ethoxy]-quinazolin-4-yl}-piperidine-1-carboxylic acid (4-morpholin-4-yl-phenyl)-amide]
- pIC50 (MV4-11 cells): 7.24
- pIC50 [1]: 7.57

Structure (SMILES): CC(=O)N1CCN(CCOc2ccc3c(C4CCN(C(=O)Nc5ccc(N6CCOCC6)cc5)CC4)ncnc3c2)CC1 [Example 97, 4-{7-[2-(4-Acetyl-piperazin-1-yl)-ethoxy]-quinazolin-4-yl}-piperidine-1-carboxylic acid (4-morpholin-4-yl-phenyl)-amide]
- pIC50 (MV4-11 cells): 6.58
- pIC50 [1]: 7.55

Structure (SMILES): O=C(NCCCOc1ccc2c(C3CCN(C(=O)Nc4ccc(N5CCCC5)nc4)CC3)ncnc2c1)N1CCOCC1 [Example 112, Morpholine-4-carboxylic acid (3-{4-[1-(6-pyrrolidin-1-yl-pyridin-3-ylcarbamoyl)-piperidin-4-yl]-quinazolin-7-yloxy}-propyl)-amide]
- pIC50 (MV4-11 cells): 7.01
- pIC50 [1]: 8.30

Structure (SMILES): CC(C)c1ccc(NC(=O)N2CCC(c3ncnc4ccccc34)CC2)cc1 [Example 7, 4-Quinazolin-4-yl-piperidine-1-carboxylic acid (4-isopropyl-phenyl)-amide]
- pIC50 (MV4-11 cells): 6.63
- pIC50 [1]: 7.26

Structure (SMILES): O=C1CCCN1CCCOc1ccc2c(C3CCN(C(=O)Nc4cnc(N5CCCC5)nc4)CC3)ncnc2c1 [Example 90, 4-{7-[3-(2-Oxo-pyrrolidin-1-yl)-propoxy]-quinazolin-4-yl}-piperidine-1-carboxylic acid (2-pyrrolidin-1-yl-pyrimidin-5-yl)-amide]
- pIC50 (MV4-11 cells): 6.73
- pIC50 [1]: 7.14

Structure (SMILES): CN1CCCN(CCCOc2ccc3c(C4CCN(C(=O)Nc5ccc(N6CCOCC6)cc5)CC4)ncnc3c2)CC1 [Example 125, 4-{7-[3-(4-Methyl-[1,4]diazepan-1-yl)-propoxy]-quinazolin-4-yl}-piperidine-1-carboxylic acid (4-morpholin-4-yl-phenyl)-amide]
- pIC50 (MV4-11 cells): 7.35
- pIC50 [1]: 8.22

Structure (SMILES): O=C(Nc1ccc(N2CCOCC2)cc1)N1CCC(c2ncnc3cc(OCCCO)ccc23)CC1 [Example 77, 4-[7-(3-Hydroxy-propoxy)-quinazolin-4-yl]-piperidine-1-carboxylic acid (4-morpholin-4-yl-phenyl)-amide]
- pIC50 (MV4-11 cells): 6.86
- pIC50 [1]: 6.99

Structure (SMILES): COc1cc2ncnc(C3CCN(C(=O)Nc4ccc(-c5ccco5)cc4)CC3)c2cc1OC [Example 59, 4-(6,7-Dimethoxy-quinazolin-4-yl)-piperidine-1-carboxylic acid (4-furan-2-yl-phenyl)-amide]
- pIC50 (MV4-11 cells): 6.57
- pIC50 [1]: 6.66

Structure (SMILES): CC(C)Oc1ccc(NC(=O)N2CCC(c3ncnc4cc(N5CCN(C)CC5)ccc34)CC2)cc1 [Example 103, 4-[7-(4-Methyl-piperazin-1-yl)-quinazolin-4-yl]-piperidine-1-carboxylic acid (4-isopropoxy-phenyl)-amide]
- pIC50 (MV4-11 cells): 7.60
- pIC50 [1]: 9.00

Structure (SMILES): COc1cc2ncnc(C3CCN(CC(=O)Nc4ccc(OC(C)C)cc4)CC3)c2cc1OC [Example 10, 2-[4-(6,7-Dimethoxy-quinazolin-4-yl)-piperidin-1-yl]-N-(4-isopropoxy-phenyl)-acetamide]
- pIC50 (MV4-11 cells): 6.77
- pIC50 [1]: 7.38

Structure (SMILES): CC(C)Oc1ccc(NC(=O)N2CCC(c3ccnc4ccccc34)CC2)cc1 [Example 6, 4-Quinolin-4-yl-piperidine-1-carboxylic acid (4-isopropoxy-phenyl)-amide]
- pIC50 (MV4-11 cells): 6.55
- pIC50 [1]: 7.08

Structure (SMILES): CN1CCC(COc2ccc3c(C4CCN(C(=O)Nc5ccc(N6CCOCC6)nc5)CC4)ncnc3c2)CC1 [Example 108, 4-[7-(1-Methyl-piperidin-4-ylmethoxy)-quinazolin-4-yl]-piperidine-1-carboxylic acid (6-morpholin-4-yl-pyridin-3-yl)-amide]
- pIC50 (MV4-11 cells): 6.76
- pIC50 [1]: 8.40
